Format in all cases: cell-based
The test system of assay [1] is Enterococcus faecalis (VRE, ATCC 51575). As to the kind of experiment: Antibacterial test (MIC), comparison bacteria. The settings on record: Gram positive; for MIC: read-out: minimum inhibitory concentration (MIC). On the procedure:
(§1) ATCC43504 which was a standard bacterial strain was used as Helicobacter pylori (H. pylori) to perform the test in vitro in a Columbia agar medium. The bacteria were cultured at 37° C. and a pH of 7.0 for three days. The minimum inhibitory concentration (MIC, μg/ml) was found on the fourth day. Each sample was dissolved in 1% DMSO to use. […] As bacteria for comparison, Gram negative bacteria, for example, E. coli (ATCC 10536 ATCC 25922), Klebsiella pneumonia (ATCC 10031), Proteus vulgaris (ATCC 13315), Pseudomonas aeruginosa (ATCC 9027) and Salmonella typhimurium (ATCC 13311) were used and Gram positive bacteria, for example, Staphylococcus aureus, MRSA (ATCC 33591), Staphylococcus epidermidis (ATCC 12228), Streptococcus pneumonia (ATCC 6301), Mycobacterium ranae (ATCC 110) and Enterococcus faecalis (VRE, ATCC 51575) were used.
(§2) The values in each table show minimum inhibitory concentrations (MIC, μg/ml).

The test system of assay [2] is Escherichia coli (ATCC 10536). As to the kind of experiment: Antibacterial test (MIC), comparison bacteria. The settings on record: for MIC: ATCC10536, Gram negative, read-out: minimum inhibitory concentration (MIC); for minimum inhibitory concentration (MIC): Gram negative. On the procedure: as §1, §2
The subject of assay [3] is Escherichia coli (ATCC 25922). Briefly: Antibacterial test (MIC), comparison bacteria. The settings on record: for MIC: ATCC25922, Gram negative, read-out: minimum inhibitory concentration (MIC); for minimum inhibitory concentration (MIC): Gram negative. On the procedure: as §1, §2
Assay [4] deals with Klebsiella pneumonia (ATCC 10031). As to the kind of experiment: Antibacterial test (MIC), comparison bacteria. The settings on record: for MIC: Klebsiella pneumoniae, ATCC10031, Gram negative, read-out: minimum inhibitory concentration (MIC); for minimum inhibitory concentration (MIC): Gram negative. The protocol:
as §1, §2

In assay [5] the test system is Mycobacterium ranae (ATCC 110). Briefly: Antibacterial test (MIC), comparison bacteria. The settings on record: for MIC: ATCC110, Gram positive, read-out: minimum inhibitory concentration (MIC); for minimum inhibitory concentration (MIC): Gram positive. On the procedure: as §1, §2
The subject of assay [6] is Proteus vulgaris (ATCC 13315). Briefly: Antibacterial test (MIC), comparison bacteria. The settings on record: for MIC: ATCC13315, Gram negative, read-out: minimum inhibitory concentration (MIC); for minimum inhibitory concentration (MIC): Gram negative. The protocol:
as §1, §2

In assay [7] the test system is Pseudomonas aeruginosa (ATCC 9027). As to the kind of experiment: Antibacterial test (MIC), comparison bacteria. The settings on record: for MIC: ATCC9027, Gram negative, read-out: minimum inhibitory concentration (MIC); for minimum inhibitory concentration (MIC): Gram negative. On the procedure:
as §1, §2

In assay [8] the test system is Salmonella typhimurium (ATCC 13311). As to the kind of experiment: Antibacterial test (MIC), comparison bacteria. The settings on record: Gram negative; for MIC: Salmonella enterica, read-out: minimum inhibitory concentration (MIC). The protocol: as §1, §2
Assay [9] relates to Staphylococcus aureus (MRSA, ATCC 33591). Briefly: Antibacterial test (MIC), comparison bacteria. The settings on record: Gram positive; for MIC: read-out: minimum inhibitory concentration (MIC). The protocol: as §1, §2
Assay [10] relates to Staphylococcus epidermidis (ATCC 12228). As to the kind of experiment: Antibacterial test (MIC), comparison bacteria. The settings on record: for MIC: ATCC12228, Gram positive, read-out: minimum inhibitory concentration (MIC); for minimum inhibitory concentration (MIC): Gram positive. On the procedure: as §1, §2
For assay [11], the system named is Streptococcus pneumonia (ATCC 6301). Briefly: Antibacterial test (MIC), comparison bacteria. The settings on record: for MIC: Streptococcus pneumoniae, ATCC6301, Gram positive, read-out: minimum inhibitory concentration (MIC); for minimum inhibitory concentration (MIC): Gram positive. On the procedure:
as §1, §2

In assay [12] the test system is Helicobacter pylori (ATCC 43504). As to the kind of experiment: Antibacterial test (MIC) against Helicobacter pylori. The settings on record: for MIC: Helicobacter pylori; for minimum inhibitory concentration (MIC): Helicobacter pylori ATCC 43504. On the procedure: as §1, §2
[13] abbreviates: ATCC43504, 72 h, pH 7, Helicobacter pylori ATCC 43504, Columbia agar medium, 37° C., pH 7.0, cultured three days, MIC found on the fourth day, read-out: minimum inhibitory concentration (MIC).
Where [14] appears, read: Columbia agar medium, 37° C., pH 7.0, cultured three days, MIC found on the fourth day.

Each structure is given as a SMILES string. ≈ marks a conversion by molar mass, not a printed value. Where two headings read alike, the source gives them in different places. A value given as a limit tells only on which side of the number the result lay.

Turning to `COCCCCCCCCOc1ccnc(SCc2nc3ccccc3[nH]2)c1C.Cl` [Example 14, 2-[[[4-(8-methoxy-1-octyloxy]-3-methyl-2-pyridyl]thio]-methyl]-1H-benzimidazole hydrochloride], the MIC in [1], in assay [2], in assay [3], in assay [4], in assay [5] and in assay [6] was over 100 µg/mL throughout. Further, the MIC in [7], in [8], in [9], in assay [10] and in [11] was over 100 µg/mL throughout.
In the case of `Cc1c(OCCCCCCCCO)ccnc1SCc1nc2ccccc2[nH]1` [Example 13, 2-[[[4-(8-hydroxy-1-octyloxy)-3-methyl-2-pyridyl]thio]-methyl]-1H-benzimidazole], the MIC in assay [12] (summary of Tables 2 and 3) was 0.003 µg; in assay [1], over 100 µg/mL; in assay [2], over 100 µg/mL; in [3], over 100 µg/mL; in assay [4], over 100 µg/mL; in [5] it was over 100 µg/mL. For the same compound, the MIC in assay [6], in [7], in assay [8], in [9], in assay [10] and in assay [11] was over 100 µg/mL throughout.
As to `CCOCCCOc1ccnc(SCc2nc3ccccc3[nH]2)c1C` [Example 11], the MIC in assay [12] (setting [13]) was 0.1 µg/mL (≈ 0.28 µM); in [1], over 100 µg/mL; in assay [2], over 100 µg/mL; in [3], over 100 µg/mL; in assay [4], over 100 µg/mL; in assay [5] it was over 100 µg/mL. The MIC in assay [6], in assay [7], in assay [8], in assay [9], in [10] and in [11] was over 100 µg/mL in each case.
For `CCCCCSc1ccnc(SCc2nc3ccccc3[nH]2)c1C` [Example 7, 2-[[(4-thiopentyl-3-methyl-2-pyridyl)thio]-methyl]-1H-benzimidazole], the “minimum inhibitory concentration (MIC)” value is 0.3 µg/mL (≈ 0.839 µM) in assay [12] (setting [14]); 100< μg/ml in [1]; 100< μg/ml in assay [2]; 100< μg/ml in [3]; 100< μg/ml in [4]; 100< μg/ml in [5]. The “minimum inhibitory concentration (MIC)” value in assay [6], in assay [7], in assay [8], in [9], in assay [10] and in assay [11] was 100< μg/ml in each case.
For the compound `Cc1c(SCCCCCCCCO)ccnc1SCc1nc2ccccc2[nH]1` [Example 2, 2-[[[4-[(8-hydroxy-octyl)thio]-3-methyl-2-pyridyl]thio]methyl]-1H-benzimidazole], the MIC was 0.003 µg in [12] (summary of Tables 2 and 3); over 100 µg/mL in assay [1]; over 100 µg/mL in assay [2]; over 100 µg/mL in assay [3]; over 100 µg/mL in [4]; over 100 µg/mL in assay [5]. Further, the MIC in assay [6], in assay [7], in [8], in assay [9], in [10] and in assay [11] was over 100 µg/mL throughout.
In the case of `CCCSc1ccnc(SCc2nc3ccccc3[nH]2)c1C.Cl` [Example 6, 2-[[(4-thiopropyl-3-methyl-2-pyridyl)thio]-methyl]-1H-benzimidazole hydrochloride], the “minimum inhibitory concentration (MIC)” value is 0.3 µg/mL in [12] (setting [14]); 100< μg/ml in assay [1]; 100< μg/ml in [2]; 100< μg/ml in assay [3]; 100< μg/ml in assay [4]; 100< μg/ml in [5]. The “minimum inhibitory concentration (MIC)” value in assay [6], in [7], in [8], in assay [9], in [10] and in assay [11] was 100< μg/ml each time.
For `Cc1c(SCCOCCOCC(F)(F)F)ccnc1SCc1nc2ccccc2[nH]1.Cl` [Example 8], the “minimum inhibitory concentration (MIC)” value is 0.1 µg/mL in [12] (setting [14]); 100< μg/ml in [1]; 100< μg/ml in assay [2]; 100< μg/ml in assay [3]; 100< μg/ml in assay [4]; 100< μg/ml in [5]. For the same compound, the “minimum inhibitory concentration (MIC)” value in assay [6], in [7], in [8], in assay [9], in [10] and in assay [11] was 100< μg/ml in each case.
Regarding `CSc1ccnc(SCc2nc3ccccc3[nH]2)c1C.Cl` [Example 5, 2-[[(4-thiomethyl-3-methyl-2-pyridyl)thio]-methyl]-1H-benzimidazole hydrochloride], the “minimum inhibitory concentration (MIC)” value was 3.0 µg/mL in assay [12] (setting [14]); 100< μg/ml in assay [1]; 100< μg/ml in assay [2]; 100< μg/ml in assay [3]; 100< μg/ml in assay [4]; 100< μg/ml in [5]. Further, the “minimum inhibitory concentration (MIC)” value in assay [6], in assay [7], in assay [8], in assay [9], in assay [10] and in assay [11] was 100< μg/ml in each case.
Consider `COCCCCCCCCSc1ccnc(SCc2nc3ccccc3[nH]2)c1C.Cl` [Example 3, 2-[[[4-[(8-methoxy-1-octyl]thio]-3-methyl-2-pyridyl]thio]methyl]-1H-benzimidazole hydrochloride], for which the MIC in assay [12] (setting [13]) is 0.1 µg/mL; in [1], over 100 µg/mL; in assay [2], over 100 µg/mL; in [3], over 100 µg/mL; in assay [4] it was over 100 µg/mL; in assay [5], over 100 µg/mL. The MIC in assay [6], in [7], in [8], in assay [9], in assay [10] and in assay [11] was over 100 µg/mL throughout.
Take `CC[C@H]1OC(=O)[C@H](C)[C@@H](O[C@H]2C[C@@](C)(OC)[C@@H](O)[C@H](C)O2)[C@H](C)[C@@H](O[C@@H]2O[C@H](C)C[C@H](N(C)C)[C@H]2O)[C@](C)(OC)C[C@@H](C)C(=O)[C@H](C)[C@@H](O)[C@]1(C)O` [CAM, Clarithromycin, reference compound]: the MIC was 0.1 µg/mL (≈ 0.134 µM) in assay [12] (setting [13]); 0.1 µg/mL (≈ 0.134 µM) in [1]; 50 µg/mL (≈ 66.8 µM) in assay [2]; 50 µg/mL (≈ 66.8 µM) in assay [3]; 100 µg/mL (≈ 134 µM) in assay [6]; over 100 µg/mL in assay [7]. Also, the MIC stood at 25 µg/mL (≈ 33.4 µM) in [8], 0.1 µg/mL (≈ 0.134 µM) in assay [9] and 0.02 µg/mL (≈ 0.0267 µM) in assay [11].
In the case of `CC1(C)S[C@@H]2[C@H](NC(=O)[C@H](N)c3ccc(O)cc3)C(=O)N2[C@H]1C(=O)O` [AMPC, Amoxicillin, reference compound], the “minimum inhibitory concentration (MIC)” value in assay [12] (setting [14]) is 0.06 µg/mL (≈ 0.164 µM); in assay [1], 0.3 µg/mL (≈ 0.821 µM); in assay [7], 100< μg/ml; in assay [8], 0.3 µg/mL (≈ 0.821 µM); in [9], 0.1 µg/mL (≈ 0.274 µM); in assay [11], 0.01 µg/mL (≈ 0.0274 µM).

The record behind these values is patent US20120041030A1, “PYRIDINE THIO DERIVATIVE, AND PHARMACEUTICAL COMPOSITION WHICH CONTAINS SAME AND HAS ANTI-HELICOBACTER PYLORI ACTION” (priority 2009, published 2012).
